{
  "source": "patent US7262186B2",
  "about": "“Substituted pyrazolo[3,4-d] pyrimidinones as a mitotic kinesin inhibitor” (Merck & Co., Inc., priority 2001, dated 2007)",
  "target": "T1, human KSP motor domain (KSP(367H)) (Homo sapiens, UniProt P52732)",
  "T1 construct": "were used to amplify the motor domain and the neck linker region; made in house; host or cells: E. coli BL21 (DE3), pRSETa vector",
  "T1 sequence (P52732 18-359 limits assumed)": "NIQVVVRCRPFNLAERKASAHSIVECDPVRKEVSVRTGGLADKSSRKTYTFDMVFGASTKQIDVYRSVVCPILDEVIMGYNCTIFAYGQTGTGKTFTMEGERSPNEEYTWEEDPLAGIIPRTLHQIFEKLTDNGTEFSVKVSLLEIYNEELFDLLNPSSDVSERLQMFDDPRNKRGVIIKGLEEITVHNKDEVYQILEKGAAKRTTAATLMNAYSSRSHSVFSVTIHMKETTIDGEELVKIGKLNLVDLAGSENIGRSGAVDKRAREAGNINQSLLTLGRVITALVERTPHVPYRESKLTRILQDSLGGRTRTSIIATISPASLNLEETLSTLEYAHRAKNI",
  "experiment": "Kinesin ATPase in vitro assay",
  "format": "biochemical",
  "settings": "microtubule-stimulated ATPase, 1 mM ATP, 23° C., quinaldine red/ammonium molybdate phosphate detection",
  "text": "I. Kinesin ATPase In Vitro Assay\nCloning and Expression of Human Poly-histidine Tagged KSP Motor Domain (KSP(367H))\nPlasmids for the expression of the human KSP motor domain construct were cloned by PCR using a pBluescript full length human KSP construct (Blangy et al., Cell, vol. 83, pp 1159-1169, 1995) as a template. The N-terminal primer 5′-[…] (SEQ.ID.NO.: 1) and the C-terminal primer 5′-[…] […] (SEQ.ID.NO.: 2) were used to amplify the motor domain and the neck linker region. The PCR products were digested with AseI and XhoI, ligated into the NdeI/XhoI digestion product of pRSETa (Invitrogen) and transformed into E. coli BL21 (DE3).\nCells were grown at 37° C. to an OD600 of 0.5. […]\nThe kinesin motor domain is incubated with microtubules, 1 mM ATP (1:1 MgCl2: Na-ATP), and compound at 23° C. in buffer containing 80 mM K-HEPES (pH 7.0), 1 mM EGTA, 1 mM DTT, 1 mM MgCl2, and 50 mM KCl. […] Free phosphate from the ATP hydrolysis reaction is measured via a quinaldine red/ammonium molybdate assay by adding 150 μl of quench C buffer containing a 2:1 ratio of quench A:quench B. Quench A contains 0.1 mg/ml quinaldine red and 0.14% polyvinyl alcohol; quench B contains 12.3 mM ammonium molybdate tetrahydrate in 1.15 M sulfuric acid. The reaction is incubated for 10 minutes at 23° C., and the absorbance of the phospho-molybdate complex is measured at 540 nm.",
  "data": [
    {"smiles": "CCC(c1nc2[nH]nc(Br)c2c(=O)n1Cc1ccccc1)N(CCN(C)C)C(=O)c1ccc(Br)cc1", "note": "(stereo not shown) [1-5, N-[1-(5-benzyl-3-bromo-4-oxo-4,5-dihydro-1H-pyrazolo[3,4-d]pyrimidin-6-yl)propyl]-4-bromo-N-[2-(dimethylamino)ethyl]benzamide]", "values": [
      {"measurement": "IC50", "result": "≤ 50", "unit": "µM"}
    ]}
  ]
}
